Reference: patent publication US20230322813A1, “COMPOUNDS AND METHODS FOR TREATMENT OF VIRAL INFECTIONS” (Gilead Sciences, Inc., priority 2022, published 2023)
Like-named read-outs stand apart in the source and are kept apart here.

Legend:
[1] = tested on: Respiratory syncytial virus recombinant with luciferase (RSV-Luc5); experiment: microbe, parasite or virus in culture; type: cell-based; details: human respiratory syncytial virus, NHBE, 72 h, read-out: RSV NHBE EC50
[2] = tested on: SARS Coronavirus 2 recombinant with NanoLuc (SARS-CoV2-NLuc); experiment: organism not typed; type: cell-based; details: 48 h
in vitro = type: cell-based; details: human
Protocol: Cytotoxicity of the compounds was determined in uninfected cells using the cell viability reagent in a similar fashion as described before for other cell types (Cihlar et al., Antimicrob Agents Chemother. 2008, 52(2):655-65). HEp-2 (1.5×10^3 cells/well) and MT-4 (2×10^3 cells/well) cells were plated in 384-well plates and incubated with the appropriate medium containing 3-fold serially diluted compound ranging from 15 nM to 100,000 nM. Cells were cultured for 4-5 days at 37° C. Following the incubation, the cells were allowed to equilibrate to 25° C., and cell viability was determined by adding Cell-Titer Glo viability reagent. The mixture was incubated for 10 min, and the luminescence signal was quantified using an Envision plate reader. Untreated cell and cells treated at 2 μM puromycin (Sigma, St. Louis, MO) serve as 100% and 0% cell viability control, respectively.

[3] = set-up: species or system Sprague-Dawley rats; details: male, Sprague-Dawley, rat, in vivo, po; for Cmax / Reference Compound A AUCinf.: 8.1 mg/kg; for Reference Compound A F %: 1 mg/kg
Protocol: Ester Reference Compound, Compound 3 and Compound 6 were dosed orally by gavage to male Sprague-Dawley rats (n=3/group); Ester Reference Compound at 6 mg/kg in 2.5% Dimethyl sulfoxide; 10% Kolliphor HS-15; 10% Labrasol; 2.5% Propylene glycol and 75% water, pH 2.5; Compound 3 at 6.65 mg/kg in 10% Dimethyl sulfoxide; 40% Kolliphor HS-15; 40% Labrasol and 10% Propylene glycol and Compound 6 at 8.1 mg/kg in 2.5% Dimethyl sulfoxide; 10% Kolliphor HS-15; 10% Labrasol; 2.5% Propylene glycol and 75% water, pH 2.8. Blood samples were collected into pre-chilled collection tubes containing K2EDTA and processed to plasma at 10 time points over a span of pre-dose to 24 h post-administration. Plasma samples were subject to protein precipitation with a 12.5-fold volume of methanol, vortexed and centrifuged. Supernatants were transferred and evaporated to dryness under nitrogen and reconstituted with 5% acetonitrile in water. Separation was achieved on a Phenomenex Synergi Polar-RP column, a mobile phase A of 10 mM ammonium formate with 0.1% formic acid in water and a mobile phase B of 0.1% formic acid in acetonitrile with a step-wise linear gradient from 5 to 95% mobile phase B. An LC-MS/MS method was used to measure the concentrations of the Reference Compound A and either Ester Reference Compound, Compound 3 or Compound 6 in plasma.

[4] = tested on: Respiratory syncytial virus recombinant with luciferase (RSV-Luc5); experiment: microbe, parasite or virus in culture; type: cell-based; details: human respiratory syncytial virus, HEp-2, 72 h, read-out: RSV Hep2 EC50

Row | SMILES | EC50 [1] [nM] | EC50 [2] [nM] | CC50 (in vitro) [nM] | Cmax [3] [nM] | Reference Compound A AUCinf. [3] [µM·h] | Reference Compound A F % [3] [%] | EC50 [4] [nM]
1 | CC(=O)Nc1ncnn2c([C@]3(C#N)O[C@H](COC(C)=O)[C@@H](OC(C)=O)[C@H]3OC(C)=O)ccc12 [Compound 7, (2R,3R,4R,5R)-2-(4-acetamidopyrrolo[2,1-f][1,2,4]triazin-7-yl)-5-(acetoxymethyl)-2-cyanotetrahydrofuran-3,4-diyl diacetate] | 932 | 5540 | – | – | – | – | –
2 | CCCC(=O)Nc1ncnn2c([C@]3(C#N)O[C@H](COC(C)=O)[C@@H](OC(C)=O)[C@H]3OC(C)=O)ccc12 [Compound 8, (2R,3R,4R,5R)-5-(acetoxymethyl)-2-(4-butyramidopyrrolo[2,1-f][1,2,4]triazin-7-yl)-2-cyanotetrahydrofuran-3,4-diyl diacetate] | 405 | 3140 | – | – | – | – | –
3 | COC1O[C@H]2[C@@H](O1)[C@](C#N)(c1ccc3c(N)ncnn13)O[C@@H]2COC(=O)C(C)C (stereo partly drawn) [Compound 4, ((3aR,4R,6R,6aR)-6-(4-aminopyrrolo[2,1-f][1,2,4]triazin-7-yl)-6-cyano-2-methoxytetrahydrofuro[3,4-d][1,3]dioxol-4-yl)methyl isobutyrate] | – | > 50000 | > 5000 | – | – | – | –
4 | CC(C)C(=O)OC[C@H]1O[C@@](C#N)(c2ccc3c(=N)n(COP(=O)(O)OCc4ccccc4)cnn23)[C@H](O)[C@@H]1O [Compound 5, ((2R,3S,4R,5R)-5-(3-((((benzyloxy)(hydroxy)phosphoryl)oxy)methyl)-4-imino-3,4-dihydropyrrolo[2,1-f][1,2,4]triazin-7-yl)-5-cyano-3,4-dihydroxytetrahydrofuran-2-yl)methyl isobutyrate] | – | > 50000 | > 50000 | – | – | – | –
5 | CCCCCC(=O)Nc1ncnn2c([C@]3(C#N)O[C@H](COC(=O)C(C)C)[C@@H](O)[C@H]3O)ccc12 [Compound 10, ((2R,3S,4R,5R)-5-cyano-5-(4-hexanamidopyrrolo[2,1-f][1,2,4]triazin-7-yl)-3,4-dihydroxytetrahydrofuran-2-yl)methyl isobutyrate] | – | 1220 | > 50000 | – | – | – | –
6 | CC(C)C(=O)OC[C@H]1O[C@@](C#N)(c2ccc3c(N)ncnn23)[C@H](O)[C@@H]1O [Ester Reference Compound, reference compound] | – | – | – | 2100 | 7.57 | – | –
7 | CCCCCCCC(=O)Nc1ncnn2c([C@]3(C#N)O[C@H](COC(=O)C(C)C)[C@@H](O)[C@H]3O)ccc12 [Compound 11, ((2R,3S,4R,5R)-5-cyano-3,4-dihydroxy-5-(4-octanamidopyrrolo[2,1-f][1,2,4]triazin-7-yl)tetrahydrofuran-2-yl)methyl isobutyrate] | 188 | 935 | 42400 | – | – | – | –
8 | CC(C)C(=O)OC[C@H]1O[C@@](C#N)(c2ccc3c(=N)n(COP(=O)(O)O)cnn23)[C@H](O)[C@@H]1O [Compound 6, ((2R,3S,4R,5R)-5-cyano-3,4-dihydroxy-5-(4-imino-3-((phosphonooxy)methyl)-3,4-dihydropyrrolo[2,1-f][1,2,4]triazin-7-yl)tetrahydrofuran-2-yl)methyl isobutyrate] | 3550 | 3650 | 50000 | 3080 | 6.86 | 54.4 | 719
9 | CCCC(=O)Nc1ncnn2c([C@]3(C#N)O[C@H](COC(=O)C(C)C)[C@@H](O)[C@H]3O)ccc12 [Compound 9, ((2R,3S,4R,5R)-5-(4-butyramidopyrrolo[2,1-f][1,2,4]triazin-7-yl)-5-cyano-3,4-dihydroxytetrahydrofuran-2-yl)methyl isobutyrate] | – | 1950 | > 50000 | – | – | – | 529
10 | CC(C)C(=O)OC[C@H]1O[C@@](C#N)(c2ccc3c(N)ncnn23)[C@@H]2OC(=O)O[C@@H]21 [Compound 3, ((3aR,4R,6R,6aR)-6-(4-aminopyrrolo[2,1-f][1,2,4]triazin-7-yl)-6-cyano-2-oxotetrahydrofuro[3,4-d][1,3]dioxol-4-yl)methyl isobutyrate] | 512 | 1750 | 50000 | 2280 | 10.7 | 84.7 | 330
